In patent US7074789B2, “Kinase inhibitors” (Amgen Inc., priority 1999, dated 2006) one finds IC50 data, which are given here for 14 compounds.

Molecules are shown by their SMILES. A value given as a limit tells only on which side of the number the result lay.

Format in all cases: biochemical
One experiment has as its target T1, Lck (Homo sapiens, UniProt P06239).
T1 construct: Kinases are expressed as either kinase domains or full length constructs; made in house
Kind of experiment: Kinase inhibition assay (33P transfer), Lck. To be noted: read-out: Lck-1. Put shortly:
(§1)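 Kinase domain or full-length constructs, GST- or polyHis-tagged, expressed in E. coli or baculovirus-High Five cells, sometimes with regulatory polypeptides. Activity measured as 33PO4 transfer from ATP to plate-bound poly(Glu,Tyr) 4:1 or poly(Arg,Ser) 3:1; after incubation, plates washed with 0.5% phosphoric acid and counted by liquid scintillation.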

In another experiment the target is T2, Zap-70 (Homo sapiens, UniProt P43403).
T2 construct: Kinases are expressed as either kinase domains or full length constructs; made in house
T2 sequence (P43403 1-619): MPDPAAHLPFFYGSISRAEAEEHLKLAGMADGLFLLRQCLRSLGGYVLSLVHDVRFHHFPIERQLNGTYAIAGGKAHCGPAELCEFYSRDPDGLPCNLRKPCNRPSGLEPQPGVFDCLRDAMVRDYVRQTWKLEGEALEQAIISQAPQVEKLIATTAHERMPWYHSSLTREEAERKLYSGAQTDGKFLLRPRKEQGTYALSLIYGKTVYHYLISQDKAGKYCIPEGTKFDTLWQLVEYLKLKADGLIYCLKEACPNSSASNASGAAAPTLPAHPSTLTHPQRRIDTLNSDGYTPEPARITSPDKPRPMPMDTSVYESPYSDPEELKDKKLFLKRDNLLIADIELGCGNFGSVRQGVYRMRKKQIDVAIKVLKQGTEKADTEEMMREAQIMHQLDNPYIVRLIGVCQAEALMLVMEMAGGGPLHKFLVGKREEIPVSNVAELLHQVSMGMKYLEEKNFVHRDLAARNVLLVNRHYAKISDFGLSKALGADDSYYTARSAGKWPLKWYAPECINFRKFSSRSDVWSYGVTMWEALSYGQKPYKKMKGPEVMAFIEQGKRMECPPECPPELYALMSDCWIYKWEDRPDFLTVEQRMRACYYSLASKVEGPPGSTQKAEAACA
The experiment in a line: Kinase inhibition assay (33P transfer), Zap-70. To be noted: read-out: Zap-1. Put shortly: as §1

A further experiment deals with T3, Itk (Homo sapiens, UniProt Q08881).
T3 construct: Kinases are expressed as either kinase domains or full length constructs; made in house
T3 sequence (Q08881 1-620): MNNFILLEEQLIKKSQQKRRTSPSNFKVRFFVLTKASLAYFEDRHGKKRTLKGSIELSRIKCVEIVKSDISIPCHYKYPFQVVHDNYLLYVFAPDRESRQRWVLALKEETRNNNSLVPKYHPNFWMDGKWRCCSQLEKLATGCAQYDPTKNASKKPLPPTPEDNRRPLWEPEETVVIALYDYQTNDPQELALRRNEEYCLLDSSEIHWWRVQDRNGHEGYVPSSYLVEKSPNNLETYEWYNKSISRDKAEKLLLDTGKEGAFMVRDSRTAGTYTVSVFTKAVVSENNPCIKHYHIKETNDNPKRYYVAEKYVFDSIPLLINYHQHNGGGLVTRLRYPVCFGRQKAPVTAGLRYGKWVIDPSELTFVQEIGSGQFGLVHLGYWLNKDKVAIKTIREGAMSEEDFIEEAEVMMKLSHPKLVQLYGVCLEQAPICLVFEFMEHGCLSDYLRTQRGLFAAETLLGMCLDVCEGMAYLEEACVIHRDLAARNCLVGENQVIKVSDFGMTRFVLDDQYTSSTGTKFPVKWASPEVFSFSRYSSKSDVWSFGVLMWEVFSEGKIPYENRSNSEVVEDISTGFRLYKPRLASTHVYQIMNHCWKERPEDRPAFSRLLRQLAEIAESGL
The experiment in a line: Kinase inhibition assay (33P transfer), Itk. To be noted: read-out: Itk-1. Put shortly:
(§2)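 Each enzyme, purified to near homogeneity by affinity chromatography, was incubated with ATP carrying 33P and a substrate polymer fixed to the plate. Unbound label was removed with dilute phosphoric acid (0.5%) before adding scintillant and counting. Potency is given as the compound level cutting label uptake by 50%.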

In a further experiment the target is T4, EGFR (Homo sapiens, UniProt P00533).
T4 construct: Kinases are expressed as either kinase domains or full length constructs; made in house
T4 sequence (P00533 25-1210, species assumed): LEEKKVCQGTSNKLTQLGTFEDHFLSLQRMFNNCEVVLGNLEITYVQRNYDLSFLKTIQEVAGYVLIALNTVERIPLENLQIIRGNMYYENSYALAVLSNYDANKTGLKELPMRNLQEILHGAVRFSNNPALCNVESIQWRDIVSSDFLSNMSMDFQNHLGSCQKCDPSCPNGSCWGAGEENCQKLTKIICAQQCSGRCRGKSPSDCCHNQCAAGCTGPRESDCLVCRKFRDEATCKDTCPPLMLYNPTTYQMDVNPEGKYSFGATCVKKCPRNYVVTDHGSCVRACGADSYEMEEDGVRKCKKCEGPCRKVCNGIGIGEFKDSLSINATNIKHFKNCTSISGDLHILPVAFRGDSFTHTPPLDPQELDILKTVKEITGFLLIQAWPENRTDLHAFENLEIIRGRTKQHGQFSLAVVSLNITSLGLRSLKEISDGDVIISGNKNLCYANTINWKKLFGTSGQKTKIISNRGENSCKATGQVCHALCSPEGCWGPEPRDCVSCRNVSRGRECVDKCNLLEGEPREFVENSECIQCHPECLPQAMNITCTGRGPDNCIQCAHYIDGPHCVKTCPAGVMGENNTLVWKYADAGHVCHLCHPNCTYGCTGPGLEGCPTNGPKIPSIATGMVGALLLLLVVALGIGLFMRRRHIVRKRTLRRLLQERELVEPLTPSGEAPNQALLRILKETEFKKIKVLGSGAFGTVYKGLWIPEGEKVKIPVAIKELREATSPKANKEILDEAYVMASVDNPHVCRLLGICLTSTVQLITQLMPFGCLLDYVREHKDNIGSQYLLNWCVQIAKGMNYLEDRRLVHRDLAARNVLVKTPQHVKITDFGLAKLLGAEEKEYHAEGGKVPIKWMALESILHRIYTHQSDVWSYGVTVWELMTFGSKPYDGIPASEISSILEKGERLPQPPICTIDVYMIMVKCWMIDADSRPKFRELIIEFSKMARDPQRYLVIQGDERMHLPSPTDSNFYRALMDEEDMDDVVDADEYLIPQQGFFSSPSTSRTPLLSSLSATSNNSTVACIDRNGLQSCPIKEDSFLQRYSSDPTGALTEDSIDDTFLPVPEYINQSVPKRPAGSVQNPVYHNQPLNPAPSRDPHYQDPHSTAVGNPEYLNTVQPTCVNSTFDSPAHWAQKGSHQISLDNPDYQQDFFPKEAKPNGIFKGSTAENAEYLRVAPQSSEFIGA
Kind of experiment: Kinase inhibition assay (33P transfer), EGFR. Conditions: Table 2, kinase inhibition class; read-out: EGFR-1. Put shortly: as §2

A further experiment concerns the target T5, ErbB2 (Homo sapiens, UniProt P04626).
T5 construct: Kinases are expressed as either kinase domains or full length constructs; made in house
The experiment in a line: Kinase inhibition assay (33P transfer), ErbB2. Conditions: read-out: ErbB2-2. Put shortly: as §2

The target of the next experiment is T6, Kdr (Homo sapiens, UniProt P35968).
T6 construct: Kinases are expressed as either kinase domains or full length constructs; made in house
T6 sequence (P35968 20-1356, species assumed): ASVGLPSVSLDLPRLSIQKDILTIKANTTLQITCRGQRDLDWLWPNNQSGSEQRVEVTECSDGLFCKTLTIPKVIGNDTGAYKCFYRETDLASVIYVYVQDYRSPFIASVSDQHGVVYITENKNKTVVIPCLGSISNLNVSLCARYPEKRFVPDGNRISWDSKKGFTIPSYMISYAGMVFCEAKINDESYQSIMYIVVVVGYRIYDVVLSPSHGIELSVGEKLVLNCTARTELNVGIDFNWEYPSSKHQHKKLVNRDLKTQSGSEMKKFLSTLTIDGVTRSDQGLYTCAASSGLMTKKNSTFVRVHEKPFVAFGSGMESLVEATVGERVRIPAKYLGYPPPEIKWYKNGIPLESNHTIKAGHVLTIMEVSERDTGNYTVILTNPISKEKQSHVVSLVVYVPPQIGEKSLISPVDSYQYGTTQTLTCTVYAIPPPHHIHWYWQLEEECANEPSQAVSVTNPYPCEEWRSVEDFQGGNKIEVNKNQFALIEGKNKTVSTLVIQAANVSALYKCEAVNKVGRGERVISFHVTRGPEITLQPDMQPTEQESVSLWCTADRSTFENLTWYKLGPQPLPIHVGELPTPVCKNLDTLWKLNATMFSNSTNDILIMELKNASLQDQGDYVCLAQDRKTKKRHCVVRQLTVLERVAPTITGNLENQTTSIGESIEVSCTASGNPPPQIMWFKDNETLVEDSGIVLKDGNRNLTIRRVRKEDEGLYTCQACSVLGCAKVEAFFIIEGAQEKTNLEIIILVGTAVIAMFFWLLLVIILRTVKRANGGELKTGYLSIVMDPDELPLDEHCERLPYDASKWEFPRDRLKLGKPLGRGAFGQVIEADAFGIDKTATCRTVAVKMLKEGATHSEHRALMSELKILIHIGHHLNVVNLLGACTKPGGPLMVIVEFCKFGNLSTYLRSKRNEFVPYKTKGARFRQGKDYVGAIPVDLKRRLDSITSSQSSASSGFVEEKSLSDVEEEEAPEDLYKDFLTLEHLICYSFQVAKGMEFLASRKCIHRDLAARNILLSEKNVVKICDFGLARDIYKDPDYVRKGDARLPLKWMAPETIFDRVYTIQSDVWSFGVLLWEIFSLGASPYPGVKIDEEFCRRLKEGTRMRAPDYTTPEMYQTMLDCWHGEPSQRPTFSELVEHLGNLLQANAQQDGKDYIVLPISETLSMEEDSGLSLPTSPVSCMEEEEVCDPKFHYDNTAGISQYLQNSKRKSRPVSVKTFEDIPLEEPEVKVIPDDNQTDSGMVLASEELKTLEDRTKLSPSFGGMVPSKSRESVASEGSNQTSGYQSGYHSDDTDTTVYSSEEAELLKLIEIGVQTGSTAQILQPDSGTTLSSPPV
The experiment in a line: Kinase inhibition assay (33P transfer), Kdr. To be noted: read-out: KDR-1. Put shortly:
as §1

Another experiment concerns the target T7, c-Met (Homo sapiens, UniProt P08581).
T7 construct: Kinases are expressed as either kinase domains or full length constructs; made in house
Kind of experiment: Kinase inhibition assay (33P transfer), c-Met. To be noted: Table 2, kinase inhibition class; read-out: Met-1. Put shortly: as §2

The next experiment addresses T8, AKT (Homo sapiens, UniProt Q9Y243).
T8 construct: Kinases are expressed as either kinase domains or full length constructs; made in house
The experiment in a line: Kinase inhibition assay (33P transfer), AKT. Conditions: Table 2, kinase inhibition class; read-out: AKT3-1. Put shortly: as §1

For another experiment, the target named is T9, IGFR-1 (Homo sapiens, UniProt P08069).
T9 construct: Kinases are expressed as either kinase domains or full length constructs; made in house
The experiment in a line: Kinase inhibition assay, IGFR-1 (Table 2). Conditions: Table 2, kinase inhibition class.

A further experiment addresses T10, PDGFRB (Homo sapiens, UniProt P09619).
T10 construct: Kinases are expressed as either kinase domains or full length constructs; made in house
The experiment in a line: Kinase inhibition assay (33P transfer), PDGFRB. To be noted: read-out: PDGFRB-1.

T5 sequence (P04626 23-1255, species assumed): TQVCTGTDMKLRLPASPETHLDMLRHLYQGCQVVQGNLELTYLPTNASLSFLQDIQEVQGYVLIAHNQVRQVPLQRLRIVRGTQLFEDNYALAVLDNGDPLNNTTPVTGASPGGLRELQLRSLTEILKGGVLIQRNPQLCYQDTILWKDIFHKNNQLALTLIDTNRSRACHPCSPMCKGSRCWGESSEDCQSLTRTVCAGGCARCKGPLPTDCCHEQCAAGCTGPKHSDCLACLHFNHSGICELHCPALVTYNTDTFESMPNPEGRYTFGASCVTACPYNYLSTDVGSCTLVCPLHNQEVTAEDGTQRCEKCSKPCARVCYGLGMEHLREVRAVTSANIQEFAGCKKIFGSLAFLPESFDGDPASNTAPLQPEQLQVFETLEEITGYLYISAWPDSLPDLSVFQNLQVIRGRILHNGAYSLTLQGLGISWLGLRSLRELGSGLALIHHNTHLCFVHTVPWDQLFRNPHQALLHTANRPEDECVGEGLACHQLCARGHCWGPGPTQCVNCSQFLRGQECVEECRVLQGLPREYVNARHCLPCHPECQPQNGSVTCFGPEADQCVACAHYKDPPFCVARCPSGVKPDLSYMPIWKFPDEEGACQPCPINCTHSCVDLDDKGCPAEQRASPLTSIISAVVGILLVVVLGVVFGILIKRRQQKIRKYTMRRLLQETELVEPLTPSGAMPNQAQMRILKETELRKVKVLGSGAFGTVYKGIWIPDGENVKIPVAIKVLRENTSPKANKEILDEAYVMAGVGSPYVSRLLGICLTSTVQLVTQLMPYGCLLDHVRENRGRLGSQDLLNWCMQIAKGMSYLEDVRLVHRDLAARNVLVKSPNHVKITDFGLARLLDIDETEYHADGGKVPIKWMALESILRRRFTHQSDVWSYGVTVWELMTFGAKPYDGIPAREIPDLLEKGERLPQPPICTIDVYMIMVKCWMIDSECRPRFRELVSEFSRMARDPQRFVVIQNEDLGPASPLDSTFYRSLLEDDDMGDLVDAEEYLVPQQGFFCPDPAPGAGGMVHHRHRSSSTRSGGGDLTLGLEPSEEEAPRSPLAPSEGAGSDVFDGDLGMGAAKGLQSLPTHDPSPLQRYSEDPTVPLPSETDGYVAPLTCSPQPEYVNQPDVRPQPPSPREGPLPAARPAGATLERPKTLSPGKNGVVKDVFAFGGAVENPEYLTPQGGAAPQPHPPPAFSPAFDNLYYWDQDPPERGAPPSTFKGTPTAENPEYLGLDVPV
T7 sequence (P08581 25-1390): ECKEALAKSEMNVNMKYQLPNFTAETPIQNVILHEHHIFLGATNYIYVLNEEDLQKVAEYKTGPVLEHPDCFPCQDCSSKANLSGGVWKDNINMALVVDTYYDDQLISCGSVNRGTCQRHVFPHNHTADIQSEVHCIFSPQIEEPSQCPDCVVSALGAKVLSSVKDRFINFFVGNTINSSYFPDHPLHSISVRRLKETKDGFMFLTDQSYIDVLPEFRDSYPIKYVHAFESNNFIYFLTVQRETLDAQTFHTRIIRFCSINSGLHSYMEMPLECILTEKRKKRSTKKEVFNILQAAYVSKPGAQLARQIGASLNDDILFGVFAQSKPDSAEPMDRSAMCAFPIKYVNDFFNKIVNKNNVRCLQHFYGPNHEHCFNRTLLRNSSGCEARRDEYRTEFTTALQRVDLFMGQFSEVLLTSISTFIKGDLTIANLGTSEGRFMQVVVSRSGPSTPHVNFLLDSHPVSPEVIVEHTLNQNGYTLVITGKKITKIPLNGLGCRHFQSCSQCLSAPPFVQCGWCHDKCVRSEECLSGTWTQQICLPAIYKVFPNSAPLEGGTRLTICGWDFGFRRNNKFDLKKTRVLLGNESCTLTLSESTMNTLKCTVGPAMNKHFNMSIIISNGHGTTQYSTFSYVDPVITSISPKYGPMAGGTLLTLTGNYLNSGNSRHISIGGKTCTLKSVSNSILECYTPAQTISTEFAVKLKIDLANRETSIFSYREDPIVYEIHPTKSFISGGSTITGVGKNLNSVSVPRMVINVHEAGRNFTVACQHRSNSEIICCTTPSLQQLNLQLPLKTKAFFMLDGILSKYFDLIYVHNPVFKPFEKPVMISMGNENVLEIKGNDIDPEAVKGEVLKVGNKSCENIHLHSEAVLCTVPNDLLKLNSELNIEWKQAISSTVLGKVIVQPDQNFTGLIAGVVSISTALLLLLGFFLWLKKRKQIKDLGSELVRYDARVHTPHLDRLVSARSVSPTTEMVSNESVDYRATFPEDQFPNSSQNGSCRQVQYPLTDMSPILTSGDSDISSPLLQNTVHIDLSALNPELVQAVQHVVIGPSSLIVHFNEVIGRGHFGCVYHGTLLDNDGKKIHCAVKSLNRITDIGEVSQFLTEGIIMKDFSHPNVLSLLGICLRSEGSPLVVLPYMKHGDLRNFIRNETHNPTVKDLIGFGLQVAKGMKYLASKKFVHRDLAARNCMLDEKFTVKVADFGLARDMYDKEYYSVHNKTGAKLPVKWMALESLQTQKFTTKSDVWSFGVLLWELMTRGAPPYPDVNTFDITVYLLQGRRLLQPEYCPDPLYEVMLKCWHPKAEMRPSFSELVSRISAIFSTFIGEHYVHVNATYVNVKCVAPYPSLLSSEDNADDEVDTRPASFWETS

Consider `Cc1ccc2c(c1)CCCN2c1ncnc(Nc2cccc(CO)c2)n1` [Compound 770], for which the IC50 at Lck was under 1.15 µM; at Zap-70 it was over 13 µM; on Itk, over 13 µM; on EGFR it was under 1.15 µM; on ErbB2, under 1.15 µM; on Kdr, 1.15 to 6.91 µM. Further, the IC50 is under 1.15 µM on c-Met, over 13 µM on AKT, 10.1 to 13 µM on IGFR-1 and under 1.15 µM at PDGFRB.

For `Cc1ccc2c(c1)CCCN2c1ncnc(NCc2cccnc2)n1` [Compound 777], the IC50 at Lck was over 13.5 µM; at Zap-70, over 13.5 µM; on Itk, 10.5 to 13.5 µM; at EGFR, over 13.5 µM; at ErbB2 it was over 13.5 µM; on Kdr, over 13.5 µM. In addition, the IC50 at c-Met, on AKT, on IGFR-1 and at PDGFRB was over 13.5 µM each time.

`COc1cc(Nc2ncnc(N[C@@H]3CCCc4ccccc43)n2)cc(OC)c1OC` [Compound 620]: the IC50 on Lck is 0.982 to 5.89 µM; at Zap-70, 8.59 to 11 µM; at Itk it was over 11 µM; on EGFR it was 0.982 to 5.89 µM; on ErbB2, 8.59 to 11 µM; on Kdr it was 8.59 to 11 µM. Moreover, the IC50 on c-Met is 5.89 to 8.59 µM; on AKT, over 11 µM; against IGFR-1, over 11 µM; on PDGFRB, over 11 µM.

On to `CN(c1cccc(Cl)c1)c1ncnc(-n2c(N)nc3ccccc32)n1` [Compound 664], for which the IC50 at Lck was 1.14 to 6.82 µM; at Zap-70 it was 6.82 to 9.95 µM; at Itk, 6.82 to 9.95 µM; at EGFR, 1.14 to 6.82 µM; on ErbB2, 1.14 to 6.82 µM; on Kdr, 1.14 to 6.82 µM. In addition, the IC50 at c-Met fell in the range of 1.14 to 6.82 µM; at AKT it was 6.82 to 9.95 µM; against IGFR-1, 1.14 to 6.82 µM; on PDGFRB it was 9.95 to 12.8 µM.

Consider `CCN(c1cccc(C)c1)c1ncnc(Nc2cc(OC)c(OC)c(OC)c2)n1` [Compound 537], for which the IC50 is under 1.01 µM on Lck; over 11.4 µM at Zap-70; 8.85 to 11.4 µM on Itk; under 1.01 µM on EGFR; 1.01 to 6.07 µM at ErbB2; under 1.01 µM at Kdr. For the same compound, the IC50 at c-Met was 1.01 to 6.07 µM; on AKT it was over 11.4 µM; against IGFR-1, 1.01 to 6.07 µM; at PDGFRB it was 1.01 to 6.07 µM.

For `Cc1ccc2c(c1)CCCN2c1ncnc(Nc2ccc3c(c2)C(=O)OC3)n1` [Compound 763], the IC50 is 6.43 to 9.37 µM at Lck; over 12.1 µM at Zap-70; over 12.1 µM at Itk; under 1.07 µM at EGFR; 1.07 to 6.43 µM at ErbB2; 1.07 to 6.43 µM on Kdr. In addition, the IC50 on c-Met was 1.07 to 6.43 µM; on AKT, over 12.1 µM; against IGFR-1 it was over 12.1 µM; on PDGFRB, 6.43 to 9.37 µM.

In the case of `COc1cc(Nc2ncnc(Nc3ccc4nn(Cc5ccccc5)cc4c3)n2)cc(OC)c1OC` [Compound 555], the IC50 at Lck is under 0.827 µM; at Zap-70, 7.24 to 9.31 µM; on Itk, 7.24 to 9.31 µM; on EGFR, under 0.827 µM; on ErbB2, 0.827 to 4.96 µM; on Kdr, 0.827 to 4.96 µM. Moreover, the IC50 on c-Met was 4.96 to 7.24 µM; at AKT it was 4.96 to 7.24 µM; on IGFR-1, under 0.827 µM; at PDGFRB, 0.827 to 4.96 µM.

Regarding `Clc1cccc(Nc2ncnc(Nc3cc(-c4ccccc4)n[nH]3)n2)c1` [Compound 1009], the IC50 is over 12.4 µM at Lck; over 12.4 µM on Zap-70; 1.1 to 6.6 µM at Itk; under 1.1 µM at EGFR; over 12.4 µM at ErbB2; over 12.4 µM on Kdr. For the same compound, the IC50 at c-Met was over 12.4 µM; on AKT, over 12.4 µM; against IGFR-1, under 1.1 µM; at PDGFRB it was 9.62 to 12.4 µM.

For `COc1ccc(CNc2nc3ccccc3n2-c2ncnc(Nc3cccc(Cc4nnn[nH]4)c3)n2)cc1` [Compound 959], the IC50 on Lck is 0.791 to 4.75 µM; at Zap-70, 0.791 to 4.75 µM; at Itk it was 0.791 to 4.75 µM; on EGFR, 0.791 to 4.75 µM; at ErbB2, 4.75 to 6.92 µM; at Kdr, under 0.791 µM. For the same compound, the IC50 at c-Met, at AKT, against IGFR-1 and at PDGFRB was 0.791 to 4.75 µM each time.

With `COc1cc(Nc2ncnc(-n3c(NCc4nccs4)nc4ccccc43)n2)cc(OC)c1OC` [Compound 549], the IC50 on Lck was 0.815 to 4.89 µM; on Zap-70 it was over 9.17 µM; on Itk it was over 9.17 µM; on EGFR, 4.89 to 7.13 µM; at ErbB2 it was 0.815 to 4.89 µM; at Kdr, under 0.815 µM. Also, the IC50 on c-Met is over 9.17 µM; on AKT, over 9.17 µM; at IGFR-1, over 9.17 µM; at PDGFRB it was under 0.815 µM.

As for `CN(c1cccc(Cl)c1)c1ncnc(NCCN2CCCCC2)n1` [Compound 740], the IC50 was over 13 µM on Lck; over 13 µM on Zap-70; over 13 µM on Itk; 6.92 to 10.1 µM at EGFR; over 13 µM at ErbB2; over 13 µM on Kdr. Besides, the IC50 on c-Met, on AKT, on IGFR-1 and at PDGFRB was over 13 µM throughout.

For the compound `NC(=O)Cc1cccc(Nc2ncnc(-n3c(N)nc4ccccc43)n2)c1` [Compound 955], the IC50 is 1.11 to 6.66 µM at Lck; over 12.5 µM at Zap-70; 1.11 to 6.66 µM at Itk; over 12.5 µM on EGFR; 1.11 to 6.66 µM on ErbB2; under 1.11 µM at Kdr. For the same compound, the IC50 is 1.11 to 6.66 µM on c-Met, over 12.5 µM at AKT, under 1.11 µM at IGFR-1 and 1.11 to 6.66 µM at PDGFRB.

With `CN(c1cccc(Cl)c1)c1ncnc(Nc2ccc(Cl)c(Cl)c2)n1` [Compound 708], the IC50 on Lck is over 11.8 µM; at Zap-70 it was 6.3 to 9.19 µM; on Itk, over 11.8 µM; at EGFR, over 11.8 µM; on ErbB2, over 11.8 µM; at Kdr it was over 11.8 µM. The IC50 on c-Met, at AKT, on IGFR-1 and at PDGFRB was over 11.8 µM in each case.

In the case of `COc1ccc(Nc2ncnc(NCCC#N)n2)cc1OC` [Compound 787], the IC50 at Lck, at Zap-70, on Itk, on EGFR, on ErbB2 and on Kdr was over 15 µM each time. Moreover, the IC50 on c-Met, on AKT, on IGFR-1 and on PDGFRB was over 15 µM throughout.
